From patent US20180325914A1, “INCREASING STORAGE OF VITAMIN A, VITAMIN D AND/OR LIPIDS” (Salk Institute for Biological Studies, priority 2014, published 2018)

Test system: primary HSCs

## Cc1sc2c(c1C)C(c1ccc(Cl)cc1)=N[C@@H](CC(=O)OC(C)(C)C)c1nnc(C)n1-2 [JQ1, (S)-tert-butyl 2-(4-(4-chlorophenyl)-2,3,9-trimethyl-6H-thieno[3,2-f][1,2,4]triazolo[4,3-a][1,4]diazepin-6-yl)acetate]
Gene Pla2r1, mRNA-Seq, sample Day_6_JQ1
  Pla2r1 value_2: 26.6778
Gene Plat, mRNA-Seq, sample Day_6_JQ1
  Plat value_2: 141.636
Gene Prelp, mRNA-Seq, sample Day_6_JQ1
  Prelp value_2: 1220.99
Gene Prss35, mRNA-Seq, sample Day_6_JQ1
  Prss35 value_2: 23.844
Gene Ptms, mRNA-Seq, sample Day_6_JQ1
  Ptms value_2: 627.919
Gene Ptrf, mRNA-Seq, sample Day_6_JQ1
  Ptrf value_2: 259.645
Gene Qpct, mRNA-Seq, sample Day_6_JQ1
  Qpct value_2: 87.1308
Gene Rad51, mRNA-Seq, sample Day_6_JQ1
  Rad51 value_2: 12.1115
Gene Rbp1, mRNA-Seq, sample Day_6_JQ1
  Rbp1 value_2: 218.378
Gene Reck, mRNA-Seq, sample Day_6_JQ1
  Reck value_2: 17.3878
Gene Rrm2, mRNA-Seq, sample Day_6_JQ1
  Rrm2 value_2: 68.04
Gene Rtn1, mRNA-Seq, sample Day_6_JQ1
  Rtn1 value_2: 47.263
Gene S100a4, mRNA-Seq, sample Day_6_JQ1
  S100a4 value_2: 250.226
Gene Sbsn, mRNA-Seq, sample Day_6_JQ1
  Sbsn value_2: 16.3231
Gene Scara3, mRNA-Seq, sample Day_6_JQ1
  Scara3 value_2: 43.4366
Gene Sdpr, mRNA-Seq, sample Day_6_JQ1
  Sdpr value_2: 94.9074
Gene Serpini1, mRNA-Seq, sample Day_6_JQ1
  Serpini1 value_2: 12.3234
Gene Sesn3, mRNA-Seq, sample Day_6_JQ1
  Sesn3 value_2: 27.3512
Gene Shcbp1, mRNA-Seq, sample Day_6_JQ1
  Shcbp1 value_2: 11.9996
Gene Shisa2, mRNA-Seq, sample Day_6_JQ1
  Shisa2 value_2: 144.995
Gene Slc2a8, mRNA-Seq, sample Day_6_JQ1
  Slc2a8 value_2: 16.1545
Gene Slc9a3r1, mRNA-Seq, sample Day_6_JQ1
  Slc9a3r1 value_2: 161.158
Gene Snai2, mRNA-Seq, sample Day_6_JQ1
  Snai2 value_2: 23.1888
Gene Spag5, mRNA-Seq, sample Day_6_JQ1
  Spag5 value_2: 9.803
Gene Spc25, mRNA-Seq, sample Day_6_JQ1
  Spc25 value_2: 27.2563
Gene Svep1, mRNA-Seq, sample Day_6_JQ1
  Svep1 value_2: 86.2113
Gene Tbx20, mRNA-Seq, sample Day_6_JQ1
  Tbx20 value_2: 54.5866
Gene Tcf19, mRNA-Seq, sample Day_6_JQ1
  Tcf19 value_2: 43.53
Gene Timp2, mRNA-Seq, sample Day_6_JQ1
  Timp2 value_2: 329.559
Gene Top2a, mRNA-Seq, sample Day_6_JQ1
  Top2a value_2: 41.0029
Gene Upk1b, mRNA-Seq, sample Day_6_JQ1
  Upk1b value_2: 78.8086
Gene Wdr6, mRNA-Seq, sample Day_6_JQ1
  Wdr6 value_2: 56.5942
Gene Zwilch, mRNA-Seq, sample Day_6_JQ1
  Zwilch value_2: 13.4294
mRNA-Seq expression, Day_6_JQ1
  3110003A17Rik value_2: 104.778
  6330406I15Rik value_2: 30.5279
  9030617O03Rik value_2: 9.249
  AI597468 value_2: 20.0206
  Adam12 value_2: 22.1402
  Adora2b value_2: 12.9207
  Aga value_2: 42.0303
  Ak3 value_2: 27.7827
  Anxa6 value_2: 122.139
  Arhgef10 value_2: 5.987
  Ass1 value_2: 41.1545
  Atp8b2 value_2: 19.4721
  Btg2 value_2: 38.7075
  C1qtnf1 value_2: 19.1118
  C1qtnf6 value_2: 58.5752
  Cav1 value_2: 17.5128
  Ccdc104 value_2: 19.7014
  Ccdc109b value_2: 9.232
  Cdc42bpa value_2: 16.5997
  Cdkn2b value_2: 41.7085
  Chst14 value_2: 18.8651
  Ckap4 value_2: 147.656
  Cnn2 value_2: 222.556
  Col5a1 value_2: 106.143
  Col5a2 value_2: 372.729
  Col6a1 value_2: 47.4496
  Col8a1 value_2: 69.7251
  Cpe value_2: 54.9734
  Cpz value_2: 4.843
  Csrp1 value_2: 294.801
  Cygb value_2: 51.8956
  Cyp51 value_2: 13.4382
  Dcaf12l1 value_2: 3.456
  Dlg4 value_2: 9.101
  Dnajb4 value_2: 44.3814
  Dst value_2: 16.9506
  Eda2r value_2: 23.0105
  Efemp2 value_2: 169.818
  Epdr1 value_2: 7.336
  Evc2 value_2: 7.337
  Fam114a1 value_2: 29.7898
  Fam115c value_2: 4.611
  Fam149a value_2: 4.452
  Fam189b value_2: 7.431
  Fgf18 value_2: 10.4873
  Fhl2 value_2: 40.1985
  Flnc value_2: 24.3492
  Fzd2 value_2: 16.4688
  Gabra3 value_2: 14.8418
  Gas6 value_2: 41.2636
  Gm5424 value_2: 5.331
  Gpx8 value_2: 110.547
  Grhpr value_2: 13.8722
  Gria3 value_2: 4.78
  Igfbp3 value_2: 483.66
  Igsf8 value_2: 44.7273
  Il1rap value_2: 20.7058
  Inpp5a value_2: 33.3765
  Isoc2b value_2: 4.059
  Kif1a value_2: 6.57
  LOC100616095 value_2: 13.992
  Lama2 value_2: 9.263
  Lars2 value_2: 12.6226
  Lpp value_2: 24.9042
  Lrig3 value_2: 4.218
  Lrrn4 value_2: 11.7356
  Maged2 value_2: 60.8426
  Mboat7 value_2: 28.6438
  Meg3 value_2: 15.1775
  Mlec value_2: 92.0676
  Mmgt2 value_2: 10.425
  Mmp2 value_2: 73.6315
  Mpp2 value_2: 4.639
